Results as given in ChEMBL document CHEMBL6182843, “Actinomycetes: Treasure trove for discovering novel antibiotic candidates” (2025).
In brackets after ≈: the same amount, converted by molar mass.

Assays:
Type in all cases: functional
Staphylococcus aureus [1] = test: Antibacterial activity Staphylococcus aureus ATCC 25923 assessed as reduction in bacterial growth
Bacillus subtilis [2] = test: Antibacterial activity Bacillus subtilis ATCC 49343 assessed as reduction in bacterial growth
Escherichia coli [3] = test: Antibacterial activity Escherichia coli ATCC 8739 assessed as reduction in bacterial growth
Staphylococcus aureus [4] = test: Antibacterial activity against Staphylococcus aureus ATCC 33591
Enterococcus faecalis [5] = test: Antibacterial activity against Vancomycin-resistant Enterococcus faecalis ATCC 51299
Staphylococcus aureus [6] = test: Antimicrobial activity against Staphylococcus aureus ATCC 29213 assessed as reduction in microbial growth incubated for 16 hrs by CLSI protocol based Mueller-Hinton broth micro-dilution method
[7] = tested on: Staphylococcus epidermidis; test: Antimicrobial activity against Staphylococcus epidermidis ATCC 12228 assessed as reduction in microbial growth incubated for 16 hrs by CLSI protocol based Mueller-Hinton broth micro-dilution method
Staphylococcus aureus [8] = test: Antibacterial activity against Staphylococcus aureus ATCC 25923 assessed as reduction in microbial growth
Staphylococcus aureus [9] = test: Antibacterial activity against Staphylococcus aureus ATCC 33592 assessed as reduction in microbial growth
Bacillus subtilis [10] = test: Antibacterial activity against Bacillus subtilis ATCC 6633 assessed as reduction in microbial growth
Micrococcus luteus = test: Antibacterial activity against Micrococcus luteus ML01 assessed as reduction in bacterial growth incubated for 24 to 48 hrs by serial dilution method; conditions: time 24-48 hrs
Staphylococcus aureus [11] = test: Antibacterial activity against methicillin-Staphylococcus aureus ATCC 29213 assessed as reduction in bacterial growth by broth micro-dilution method
Bacillus cereus [12] = test: Antibacterial activity against Bacillus cereus ATCC 11778 assessed as reduction in bacterial growth
Staphylococcus aureus [13] = test: Antibacterial activity against Staphylococcus aureus assessed as reduction in microbial growth incubated for 24 hrs by CLSI protocol based analysis
Escherichia coli [14] = test: Antibacterial activity against Escherichia coli ATCC 25922 assessed as reduction in microbial growth incubated for 24 hrs by CLSI protocol based analysis
Staphylococcus aureus [15] = test: Antibacterial activity against Staphylococcus aureus
Escherichia coli [16] = test: Antibacterial activity against Escherichia coli DH5a
Bacillus subtilis [17] = test: Antibacterial activity against Bacillus subtilis
Bacillus cereus [18] = test: Antibacterial activity against Bacillus cereus
Escherichia coli [19] = test: Antibacterial activity against […] Escherichia coli ATCC 25922 assessed as reduction in bacterial growth measured for 12 hrs by CLSI protocol based broth microdilution method
Staphylococcus aureus [20] = test: Antibacterial activity against methicillin-resistant Staphylococcus aureus MB5393 assessed as reduction in bacterial growth incubated for 18 to 20 hrs by broth micro-dilution method; conditions: time 18-20 hrs
Enterococcus faecalis [21] = test: Antibacterial activity against Enterococcus faecalis ATCC 29212 assessed as reduction in microbial growth by CLSI protocol based Mueller-Hinton broth micro-dilution method
Staphylococcus aureus [22] = test: Antimicrobial activity against Staphylococcus aureus ATCC 25913 assessed as reduction in bacterial growth by CLSI protocol based Mueller-Hinton broth micro-dilution method
Xanthomonas campestris = test: Antibacterial activity against Xanthomonas campestris
Xanthomonas oryzae = test: Antibacterial activity against Xanthomonas oryzae

C=C(C)[C@@H]1CC[C@H](C)[C@H]2CC/C(C)=C/C[C@H](O)/C(C(=O)O)=C/[C@H]21
MIC (Staphylococcus aureus [1]): 49.7 µg/mL (≈ 156 µM)
MIC (Bacillus subtilis [2]): 1.1 µg/mL (≈ 3.45 µM)
MIC (Escherichia coli [3]): 125 µg/mL (≈ 394 µM)

COc1cc2oc3c(O)c4c(c(O)c3c(=O)c2cc1O)-c1c(cc2cc(C)[nH]c(=O)c2c1O)CC4
MIC (Staphylococcus aureus [4]): 0.03 µg/mL (≈ 0.0634 µM)
MIC (Enterococcus faecalis [5]): 0.03 µg/mL (≈ 0.0634 µM)

C/C=C1\NC(=O)[C@@H](CC)NC(=O)CNC(=O)[C@@](C)(C(C)=O)NC(=O)[C@H](Cc2c[nH]c3cccc(OC)c23)NC(=O)c2csc(n2)[C@@H](C)NC(=O)CNC1=O
MIC (Staphylococcus aureus [6]): 3.1 µg/mL
MIC [7]: 1.6 µM

CC[C@H](C)[C@@H]1NC(=O)[C@@H](Cc2c[nH]c3cc(Br)ccc23)NC(=O)[C@@H](Cc2c[nH]c3ccc(Br)cc23)NC(=O)[C@@H](CO)NC(=O)[C@@H](CCC(=O)O)NC(=O)[C@@H](C(C)C)NC1=O
MIC (Staphylococcus aureus [8]): 25 µg/mL
MIC (Staphylococcus aureus [9]): > 100 µg/mL
MIC (Bacillus subtilis [10]): 1.6 µg/mL

COC(=O)c1[nH]c(C(=O)O)c(-c2c[nH]c3c(Cl)cccc23)c1-c1c[nH]c2c(Cl)cccc12
MIC (Micrococcus luteus): 16 µg/mL (≈ 34.2 µM)
MIC (Staphylococcus aureus [11]): 3 µg/mL (≈ 6.41 µM)

C[C@@H]1C[C@@]2(C)O[C@]1(O)[C@@H]1C(=O)O[C@@]34C[C@@H](C)[C@@]5(C)O[C@@]13C(=C[C@@H]4C5O)C2=O (stereo partly specified)
MIC (Bacillus cereus [12]): 50 µg/mL (≈ 133 µM)

COc1cc2oc3c(c(=O)c2cc1O)C(=O)C1=C(CCc2cc4cc(C)[nH]c(=O)c4c(O)c21)C3=O
MIC (Staphylococcus aureus [4]): 0.12 µg/mL (≈ 0.255 µM)
MIC (Enterococcus faecalis [5]): 0.25 µg/mL (≈ 0.53 µM)

CC[C@H](C)C[C@@]1(O)C(=O)C[C@H](O)[C@](C)(O)/C=C(\C)[C@@H](O)/C(C)=C/C(C)=C/C[C@@H](CO[C@@H]2O[C@H](CO)[C@@H](O)[C@H](O)[C@H]2O)OC(=O)C[C@@H](O)CNC1=O
MIC (Staphylococcus aureus [13]): 21 µg/mL
MIC (Escherichia coli [14]): 27.9 µg/mL

CC[C@H](C)[C@@H]1NC(=O)[C@@H](Cc2c[nH]c3cc(Cl)ccc23)NC(=O)[C@@H](Cc2c[nH]c3ccc(Cl)cc23)NC(=O)[C@@H](CO)NC(=O)[C@@H](CCC(=O)O)NC(=O)[C@@H](C(C)C)NC1=O
MIC (Staphylococcus aureus [8]): 3.1 µg/mL
MIC (Staphylococcus aureus [9]): 1.6 µg/mL
MIC (Bacillus subtilis [10]): 1.6 µg/mL

COc1ccc(OC)c([C@@H](O)[C@@H](C)C(=O)c2ccc(OC)c(C(=O)O)c2O)c1
MIC (Staphylococcus aureus [15]): 18 µg/mL (≈ 46.1 µM)
MIC (Escherichia coli [16]): > 100 µg/mL
MIC (Bacillus subtilis [17]): 10 µg/mL (≈ 25.6 µM)

COC1=C(CC2=C(C)CC(C)(C)CC2)C(=O)c2c(cc(O)c(C)c2O)C1=O
MIC (Bacillus cereus [18]): 50 µg/mL (≈ 135 µM)

CC(=O)[C@@H](C)N(CCc1c[nH]c2ccccc12)C(C)=O
MIC (Escherichia coli [19]): 7 µg/mL (≈ 25.7 µM)

CC[C@@H](/C=C/[C@@H]1C/C=C(\C)[C@@H](O)[C@@H](C)[C@H](O)C[C@@H](O)[C@@H](C)[C@H](O)C[C@@H]2C[C@H](O)[C@@H](O)[C@](O)(C[C@@H](O[C@H]3O[C@@H](C)[C@H](O)[C@@H](O[C@H]4C[C@H](N)[C@@H](O)[C@@H](C)O4)[C@@H]3O[C@H]3O[C@@H](C)[C@H](O)[C@@H](O)[C@@H]3O)[C@@H](C)/C=C/[C@@H](O)C[C@@H](O)[C@@H](C)/C=C/C(=O)O1)O2)[C@@H](O)[C@@H](C)[C@H](CC)O[C@H]1C[C@](C)(N)[C@H](O)[C@H](C)O1
MIC (Staphylococcus aureus [20]): 1 µg/mL (≈ 0.702 µM)

Cc1c(O)cc2c(c1O)C(=O)C(C[C@@]13CCC(C)(C)C[C@]1(C)O3)=C(Cl)C2=O
MIC (Staphylococcus aureus [15]): 25 µg/mL (≈ 64 µM)
MIC (Bacillus cereus [18]): 12.5 µg/mL (≈ 32 µM)

CC1C[C@@](C)(C(=O)[C@]23C=C[C@@]45C[C@H](C)[C@@](C)(O[C@]42CC(=O)O5)[C@H]3O)OC1=O (stereo partly specified)
MIC (Bacillus cereus [12]): 25 µg/mL (≈ 66.4 µM)

CC[C@H](C)C[C@]1(O)C(=O)NC[C@H](O)CC(=O)O[C@H](CO[C@@H]2O[C@H](CO)[C@@H](O)[C@H](O)[C@H]2O)CC/C=C(\C)[C@H]2C(C)=C[C@@]3(C)O[C@H]4C[C@]1(O)O[C@@]4(C)[C@@H]23
MIC (Staphylococcus aureus [13]): 11.6 µg/mL
MIC (Escherichia coli [14]): 15.7 µg/mL

CC(=O)OC1[C@H]2C=C3C(=O)[C@@]4(C)C[C@@H](C)[C@](O)(O4)[C@@H]4C(=O)O[C@]25C[C@@H](C)[C@@]1(C)O[C@@]345 (stereo partly specified)
MIC (Bacillus cereus [12]): > 50 µg/mL

C[C@@H](O)[C@@H]1CC[C@H](c2ccc(O)c3c2C(=O)[C@]24O[C@]2([C@@H](C)O[C@@H]2CC(=O)O[C@@H]24)[C@H]3O)N1C
MIC (Enterococcus faecalis [21]): 40 µg/mL
MIC (Staphylococcus aureus [22]): 40 µg/mL (≈ 89.8 µM)

COc1c(O)cc2cc1C[C@@H](C)C[C@H](OC)[C@H](O)[C@@H](C)/C=C(\C)[C@H](OC(N)=O)[C@@H](OC)CC/C=C(\C)C(=O)N2 [REBLASTATIN]
MIC (Xanthomonas campestris): 0.125 µg/mL (≈ 0.228 µM)
MIC (Xanthomonas oryzae): 4.06 µg/mL (≈ 7.4 µM)
